In patent US7531545B2, “2-amino-3,4-dihydro-pyrido[3,4-d]pyrimidine derivatives useful as inhibitors of β-secretase (BACE)” (Janssen Pharmaceutica, N.V., priority 2005, dated 2009):
Counter-ions that a name gives are not always drawn. Like-named read-outs stand apart in the source and are kept apart here.

Target: human BACE-1 (Homo sapiens, UniProt P56817)
Test: CEREP BACE Inhibition Assay
Type: biochemical
Settings: for inhibition at 1 µM: read-out: % Inhibition @ 1.0 μM
Experimental: More specifically the assay, run at 50 μL in a 96 well plate, evaluated the effect of test compound on the activity of the human BACE-1 quantified by measuring the formation of Mca-S-E-V-N-L-NH2 from […], using a recombinant enzyme. The test compound, reference compound or water (control) were added to a buffer containing 0.09 M sodium acetate (pH 4.5) and 0.25 μg BACE-1. Compound interference with the fluorimetric detection method due to autofluorescence was then checked by measurements at the wavelengths defined to evaluate the enzyme activity. […] For control basal measurement, the substrate was omitted from the reaction mixture. […] The standard inhibitory reference compound was OM99-2, which was tested in each experiment at several concentrations to obtain an inhibition curve from which its IC50 value was calculated.

[1] = percent inhibition of the control activity, recombinant enzyme
[2] = recombinant enzyme, read-out: IC50
[3] = 1.0 μM, percent inhibition of the control activity, recombinant enzyme

Chain of human BACE-1 (P56817 46-501): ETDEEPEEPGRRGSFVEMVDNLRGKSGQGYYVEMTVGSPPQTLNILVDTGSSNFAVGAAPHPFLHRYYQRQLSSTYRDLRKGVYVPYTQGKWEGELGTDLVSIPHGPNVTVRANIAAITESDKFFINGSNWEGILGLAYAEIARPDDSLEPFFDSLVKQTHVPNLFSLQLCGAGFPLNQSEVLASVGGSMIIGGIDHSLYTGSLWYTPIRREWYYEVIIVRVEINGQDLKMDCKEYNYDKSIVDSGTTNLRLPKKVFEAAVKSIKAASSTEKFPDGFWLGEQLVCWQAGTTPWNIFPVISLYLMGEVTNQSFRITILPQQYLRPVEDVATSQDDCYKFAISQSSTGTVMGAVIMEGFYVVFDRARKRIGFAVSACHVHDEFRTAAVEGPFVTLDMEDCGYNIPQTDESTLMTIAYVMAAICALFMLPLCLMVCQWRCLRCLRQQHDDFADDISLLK

inhibition at 0.3 µM [1] [%] | IC50 [2] [µM] | inhibition at 1 µM [3] [%] | Structure (SMILES) | also measured
57 | 0.34 |  | COC(=O)[C@H](COC(C)(C)C)NC(=O)CC[C@@H](C(C)C)N1Cc2cc(Oc3ccccc3)ncc2N=C1N [Compound 69] | 
 | 0.11 |  | CC(C)(C)OC[C@@H](NC(=O)CC[C@@H](C1CCCCC1)N1Cc2cc(Oc3ccccc3)ncc2N=C1N)C(=O)N[C@@H](CCC(=O)O)C(=O)O [Compound 225] | % Inhibition @ 1.0 μM [3]: 96%
91 | 0.11 |  | COC(=O)[C@H](COC(C)(C)C)N(C)C(=O)CC[C@@H](C1CCCCC1)N1Cc2cc(Oc3ccccc3)ncc2N=C1N [Compound 65] | 
 | 0.74 | 66 | NC1=Nc2cnc(Oc3ccccc3)cc2CN1[C@@H](CCC(=O)N1CCC(c2ccccc2)CC1)C1CCCCC1 [Compound 149] | 
 | 0.24 | 90 | CC(C)(C)OC(=O)CC[C@@H](C1CCCCC1)N1Cc2cc(Oc3ccccc3)ncc2N=C1N [Compound 75] | 
 | 0.27 | 77 | CN(CCO)C(=O)CC[C@@H](C1CCCCC1)N1Cc2cc(Oc3ccccc3)ncc2N=C1N [Compound 171] | 
 | 0.09 |  | CC(C)(C)OCCN(Cc1ccccn1)C(=O)CC[C@@H](C1CCCCC1)N1Cc2cc(Oc3ccccc3)ncc2N=C1N [Compound 162] | % Inhibition @ 1.0 μM [3]: 99%
43 | 0.32 |  | CC(C)[C@H](CCC(=O)N[C@@H](COC(C)(C)C)CN1CCCCC1)N1Cc2cc(Oc3ccccc3)ncc2N=C1N [Compound 101] | 
 |  |  | CC(C)C(COCC1CC(C2CCCCC2)=NO1)N1Cc2cc(Oc3ccccc3)ncc2N=C1N (centres unmarked) [Compound 235] | IC50 (IC50 (μM), recombinant enzyme): 0.61 µM; inhibition at 1 µM: 59%
 | 0.072 | 100 | CC(C)(C)CCN(CCN)C(=O)CC[C@@H](C1CCCCC1)N1Cc2cc(Oc3ccccc3)ncc2N=C1N [Compound 146] | 
 | 0.2 | 90 | COCCN(CCOC)C(=O)CC[C@@H](C1CCCCC1)N1Cc2cc(Oc3ccccc3)ncc2N=C1N [Compound 142] | 
 | 0.044 | 99 | CN(CCC[C@@H](C1CCCCC1)N1Cc2cc(Oc3ccccc3)ncc2N=C1N)C1CCCCC1 [Compound 187] | 
 | 0.39 | 78 | NC1=Nc2cnc(Oc3ccccc3)cc2CN1[C@@H](CN1C(=O)NC2(CCCCC2)C1=O)C1CCCCC1 [Compound 229, 3-[2-(2-Amino-6-phenoxy-4H-pyrido[3,4-d]pyrimidin-3-yl)-2-(R)-cyclohexyl-ethyl]-1,3-diaza-spiro[4.5]decane-2,4-dione] | 
 | 0.12 | 98 | NC1=Nc2cnc(Oc3ccccc3)cc2CN1[C@@H](CCC(=O)NC[C@H]1CCCO1)C1CCCCC1 [Compound 210] | 
65 | 0.25 |  | CC(C)(C)OC[C@H](NC(=O)CC[C@@H](C1CCCCC1)N1Cc2cc(Oc3ccccc3)ncc2N=C1N)C(=O)O [Compound 62] | 
 | 0.11 | 102 | CC(C)(C)OCCN(Cc1cncs1)C(=O)CC[C@@H](C1CCCCC1)N1Cc2cc(Oc3ccccc3)ncc2N=C1N [Compound 159] | 
81 | 0.24 |  | COC(=O)[C@H](COC(C)(C)C)NC(=O)CC[C@@H](C1CCCCC1)N1Cc2cc(Oc3ccccc3)ncc2N=C1N [Compound 61] | 
 | 0.073 | 101 | CC(C)CN(CCC[C@@H](C1CCCCC1)N1Cc2cc(Oc3ccccc3)ncc2N=C1N)CCN1CCOCC1 [Compound 192] | 
98 | 0.1 |  | CC(C)[C@H](CCC(=O)N[C@H](COC(C)(C)C)C(=O)O)N1Cc2cc(Oc3ccccc3)ncc2N=C1N [Compound 88] | 
 | 0.081 | 100 | CC(C)(CO)CNC(=O)CC[C@@H](C1CCCCC1)N1Cc2cc(Oc3ccccc3)ncc2N=C1N [Compound 179] | 
 | 0.98 | 52 | CC(C)[C@H](C(=O)N(C)CCc1ccccc1)N1Cc2cc(Oc3ccccc3)ncc2N=C1N [Compound 221, 2-(2-Amino-6-phenoxy-4H-pyrido[3,4-d]pyrimidin-3-yl)-3,N-dimethyl-N-phenethyl-butyramide hydrochloride salt (R enantiomer)] | 
94 | 0.11 |  | NC1=Nc2cnc(Oc3ccccc3)cc2CN1[C@@H](CCC(=O)N1CCCC[C@H]1CC(=O)O)C1CCCCC1 [Compound 93] | 
 | 0.054 | 60 | CC(C)CN(CCC[C@@H](C(C)C)N1Cc2cc(Oc3ccccc3)ncc2N=C1N)CCN1CCOCC1 [Compound 193] | 
 | 0.13 | 98 | CC(C)CNC(=O)CC[C@@H](C1CCCCC1)N1Cc2cc(Oc3ccccc3)ncc2N=C1N [Compound 208] | 
95 | 0.14 |  | COC(=O)[C@@H](COCc1ccccc1)NC(=O)CC[C@@H](C(C)C)N1Cc2cc(Oc3ccccc3)ncc2N=C1N [Compound 53] | 
 | 0.088 | 99 | CC(C)(C)c1cn(C[C@@H](C2CCCCC2)N2Cc3cc(Oc4ccccc4)ncc3N=C2N)nn1 [Compound 152, 3-[2-(4-tert-Butyl-[1,2,3]triazol-1-yl)-1-(R)-cyclohexyl-ethyl]-6-phenoxy-3,4-dihydro-pyrido[3,4-d]pyrimidin-2-ylamine] | 
 | 0.2 | 94 | C[C@@H](CO)N(CCC(C)(C)C)C(=O)CC[C@@H](C1CCCCC1)N1Cc2cc(Oc3ccccc3)ncc2N=C1N [Compound 139] | 
 | 0.076 | 99 | NC1=Nc2cnc(Oc3ccccc3)cc2CN1[C@@H](CCC(=O)NCC1CC1)C1CCCCC1 [Compound 212] | 

Structure (SMILES) | inhibition at 0.3 µM [1] [%] | IC50 [2] [µM] | inhibition at 1 µM [3] [%] | also measured
CC(C)(C)OC[C@H](CN)NC(=O)CC[C@@H](C1CCCCC1)N1Cc2cc(Oc3ccccc3)ncc2N=C1N [Compound 168, N-(2-Amino-1-tert-butoxymethyl-ethyl)-4-(2-amino-6-phenoxy-4H-pyrido[3,4-d]pyrimidin-3-yl)-4-cyclohexyl-butyramide] |  |  | 101 | 
CC(C)(C)OC[C@@H](NC(=O)CC[C@@H](C1CCCCC1)N1Cc2cc(Oc3ccccc3)ncc2N=C1N)C(=O)N1CCOCC1 [Compound 103, 4-(2-Amino-6-phenoxy-4H-pyrido[3,4-d]pyrimidin-3-yl)-N-(1-(R)-tert-butoxymethyl-2-morpholin-4-yl-2-oxo-ethyl)-4-(S)-cyclohexyl-butyramide] | 96 | 0.082 |  | 
CC(C)[C@H](CCC(=O)N[C@@H](COC(C)(C)C)c1nnn[nH]1)N1Cc2cc(Oc3ccccc3)ncc2N=C1N [Compound 97, 4-(2-Amino-6-phenoxy-4H-pyrido[3,4-d]pyrimidin-3-yl)-5-methyl-(S)-hexanoic acid [2-(R)-tert-butoxy-1-(1H-tetrazol-5-yl)-ethyl]-amide] | 96 | 0.11 |  | 
CC(C)(C)OC[C@H](CO)NC(=O)CC[C@@H](C1CCCCC1)N1Cc2cc(Oc3ccccc3)ccc2N=C1N [Compound 107, 4-(2-Amino-6-phenoxy-4H-quinazolin-3-yl)-N-(1-(S)-tert-butoxymethyl-2-hydroxy-ethyl)-4-(S)-cyclohexyl-butyramide] | 87 |  |  | 
